Test results taken from patent US8299048B2, “Hexahydrocyclopentyl[f]indazole sulfonamides and derivatives thereof as selective glucocorticoid receptor modulators” (Merck Sharp & Dohme Corp., priority 2008, dated 2012).

Target: T1, human GR (Homo sapiens, UniProt P04150)
T1 sequence (P04150 1-777): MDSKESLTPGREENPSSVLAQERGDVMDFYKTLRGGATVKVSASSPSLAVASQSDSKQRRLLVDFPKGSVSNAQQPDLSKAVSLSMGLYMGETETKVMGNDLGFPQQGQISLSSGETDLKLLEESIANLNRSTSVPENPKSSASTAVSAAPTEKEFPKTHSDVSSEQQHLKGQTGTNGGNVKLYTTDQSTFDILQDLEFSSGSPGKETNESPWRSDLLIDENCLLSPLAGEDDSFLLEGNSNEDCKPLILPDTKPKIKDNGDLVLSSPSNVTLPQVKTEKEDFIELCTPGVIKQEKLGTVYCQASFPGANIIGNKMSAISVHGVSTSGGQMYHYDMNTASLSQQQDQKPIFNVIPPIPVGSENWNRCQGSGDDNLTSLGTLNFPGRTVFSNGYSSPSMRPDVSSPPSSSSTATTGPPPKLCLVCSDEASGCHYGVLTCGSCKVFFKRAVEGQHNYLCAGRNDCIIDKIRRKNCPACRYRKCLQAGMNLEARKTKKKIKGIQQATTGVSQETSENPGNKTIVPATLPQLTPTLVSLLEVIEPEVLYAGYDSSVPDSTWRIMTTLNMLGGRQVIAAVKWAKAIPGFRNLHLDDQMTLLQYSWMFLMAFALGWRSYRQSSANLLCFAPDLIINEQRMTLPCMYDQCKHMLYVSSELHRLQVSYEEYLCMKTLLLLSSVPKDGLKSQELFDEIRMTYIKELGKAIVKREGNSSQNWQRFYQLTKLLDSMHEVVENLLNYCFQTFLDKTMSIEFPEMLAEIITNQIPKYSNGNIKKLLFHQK
Assay: Trans-Activation Modulation of Glucocorticoid Receptor (GRAMMER), MMTV-LUC reporter, agonist mode
Format: cell-based
Set-up: endogenous in cells
Details: for Emax: A549, A549 cells, maximum activity, read-out: Transactivation A549 Cells GRAMMER Emax; for EC50: A549 cells, inflection point, read-out: Transactivation A549 Cells GRAMMER IP
In short: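 Readout is luciferase from a modified MMTV LTR promoter after 24 h compound exposure alongside 10 nM dexamethasone (100% activity reference), DMSO ≤1%.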

| Compound | Emax | EC50 |
| --- | --- | --- |
| COC(=O)c1ccccc1CS(=O)(=O)N(CCc1ccccc1F)C[C@H]1CCC2=Cc3c(cnn3-c3ccc(F)cc3)C[C@@]21C [Example 188, methyl 2-{[([2-(2-fluorophenyl)ethyl]{[(4αR,5S)-1-(4-fluorophenyl)-4α-methyl-1,4,4α,5,6,7-hexahydrocyclopenta[f]indazol-5-yl]methyl}amino)sulfonyl]methyl}benzoate] | 30.4% | 236 nM |
| COC(=O)c1ccccc1S(=O)(=O)N(CCc1ccccc1F)C[C@H]1CCC2=Cc3c(cnn3-c3ccc(F)cc3)C[C@@]21C [Example 189, methyl 2-[([2-(2-fluorophenyl)ethyl]{[(4αR,5S)-1-(4-fluorophenyl)-4α-methyl-1,4,4α,5,6,7-hexahydrocyclopenta[f]indazol-5-yl]methyl}amino)sulfonyl]benzoate] | 65.3% | 152 nM |
| C[C@]12Cc3cnn(-c4ccc(F)cc4)c3C=C1CC[C@@H]2CN(CCc1ccccc1F)S(=O)(=O)Cc1ccccc1C(N)=O [Example 190, 2-{[([2-(2-fluorophenyl)ethyl]{[(4αR,5S)-1-(4-fluorophenyl)-4α-methyl-1,4,4α,5,6,7-hexahydrocyclopenta[f]indazol-5-yl]methyl}amino)sulfonyl]methyl}benzamide] | 65.1% | 424 nM |
| C[C@]12Cc3cnn(-c4ccc(F)cc4)c3C=C1CC[C@@H]2CN(CC1CCCO1)S(=O)(=O)c1ccc(C(N)=O)cc1 (stereo partly drawn) [Example 191, 4-{[{[(4αR,5S)-1-(4-fluorophenyl)-4α-methyl-1,4,4α,5,6,7-hexahydrocyclopenta[f]indazol-5-yl]methyl}(tetrahydrofuran-2-ylmethyl)amino]sulfonyl}benzamide] | 27.1% | 338 nM |
| C[C@]12Cc3cnn(-c4ccc(F)cc4)c3C=C1CC[C@@H]2CN(Cc1ccccc1F)S(=O)(=O)c1cccc(C(N)=O)c1 [Example 192, 3-[((2-fluorobenzyl){[(4αR,5S)-1-(4-fluorophenyl)-4α-methyl-1,4,4α,5,6,7-hexahydrocyclopenta[f]indazol-5-yl]methyl}amino)sulfonyl]benzamide] | 4.3% | 170 nM |
| C[C@]12Cc3cnn(-c4ccc(F)cc4)c3C=C1CC[C@@H]2CN(CCCc1ccccc1)S(=O)(=O)CC(F)(F)F [Example 193, 2,2,2-trifluoro-N-{[(4αR,5S)-1-(4-fluorophenyl)-4α-methyl-1,4,4α,5,6,7-hexahydrocyclopenta[f]indazol-5-yl]methyl}-N-(3-phenylpropyl)ethanesulfonamide] | 55.4% | 303 nM |
| Cc1noc(C)c1S(=O)(=O)N(CCCc1ccccc1)C[C@H]1CCC2=Cc3c(cnn3-c3ccc(F)cc3)C[C@@]21C [Example 194, N-{[(4αR,5S)-1-(4-fluorophenyl)-4α-methyl-1,4,4α,5,6,7-hexahydrocyclopenta[f]indazol-5-yl]methyl}-3,5-dimethyl-N-(3-phenylpropyl)isoxazole-4-sulfonamide] | 41.9% | 517 nM |
| C[C@]12Cc3cnn(-c4ccc(F)cc4)c3C=C1CC[C@@H]2CN(CCCc1ccccc1)S(=O)(=O)c1ccccc1F [Example 195, 2-fluoro-N-{[(4αR,5S)-1-(4-fluorophenyl)-4α-methyl-1,4,4α,5,6,7-hexahydrocyclopenta[f]indazol-5-yl]methyl}-N-(3-phenylpropyl)benzenesulfonamide] | 12.9% | 542 nM |
| C[C@]12Cc3cnn(-c4ccc(F)cc4)c3C=C1CC[C@@H]2CN(CCc1ccccn1)S(=O)(=O)Cc1ccccc1C(N)=O [Example 196, 2-({[{[(4αR,5S)-1-(4-fluorophenyl)-4α-methyl-1,4,4α,5,6,7-hexahydrocyclopenta[f]indazol-5-yl]methyl}(2-pyridin-2-ylethyl)amino]sulfonyl}methyl)benzamide] | 36.6% | 552 nM |
| CC([C@H]1CCC2=Cc3c(cnn3-c3ccc(F)cc3)C[C@@]21C)N(CCc1ccccn1)S(=O)(=O)Cc1cccnc1 (stereo partly drawn) [Example 197, N-{1-[(4αR)-1-(4-fluorophenyl)-4α-methyl-1,4,4α,5,6,7-hexahydrocyclopenta[f]indazol-5-yl]ethyl}-1-pyridin-3-yl-N-(2-pyridin-2-ylethyl)methanesulfonamide] | 43.7% | 769 nM |
| C[C@]12Cc3cnn(-c4ccc(F)cc4)c3C=C1CC[C@@H]2CN(CCO)S(=O)(=O)Cc1ccccc1C(N)=O [Example 198, 2-({[{[(4αR,5S)-1-(4-fluorophenyl)-4α-methyl-1,4,4α,5,6,7-hexahydrocyclopenta[f]indazol-5-yl]methyl}(2-hydroxyethyl)amino]sulfonyl}methyl)benzamide] | 8.2% | 1230 nM |
| CC(C)(O)CN(C[C@H]1CCC2=Cc3c(cnn3-c3ccc(F)cc3)C[C@@]21C)S(=O)(=O)c1ccccc1F [Example 199, 2-fluoro-N-{[(4αR,5S)-1-(4-fluorophenyl)-4α-methyl-1,4,4α,5,6,7-hexahydrocyclopenta[f]indazol-5-yl]methyl}-N-(2-hydroxy-2-methylpropyl)benzenesulfonamide] | 58.6% | 96.8 nM |
| C[C@]12Cc3cnn(-c4ccc(F)cc4)c3C=C1CC[C@@H]2CN(CC1(O)CC1)S(=O)(=O)c1ccccc1F [Example 200, 2-fluoro-N-{[(4αR,5S)-1-(4-fluorophenyl)-4α-methyl-1,4,4α,5,6,7-hexahydrocyclopenta[f]indazol-5-yl]methyl}-N-[(1-hydroxycyclopropyl)methyl]benzenesulfonamide] | 57.5% | 47.9 nM |
| C[C@]12Cc3cnn(-c4ccc(F)cc4)c3C=C1CC[C@@H]2CN(CC1(O)CCCCC1)S(=O)(=O)c1ccccc1F [Example 201, 2-fluoro-N-{[(4αR,5S)-1-(4-fluorophenyl)-4α-methyl-1,4,4α,5,6,7-hexahydrocyclopenta[f]indazol-5-yl]methyl}-N-[(1-hydroxycyclohexyl)methyl]benzenesulfonamide] | 47.8% | 88.4 nM |
